# Patent publication US6613899B1, “Method for preventing deposits in oil extraction” (Cooperatie Cosun U.A., priority 1998, dated 2003)
# Legend:
# [1] = Barium sulphate scale inhibition; conditions: pH 5.5, 80° C., 10 hours
# Description: (§1) The scale-inhibiting action of CMI (DP≈10) was determined for barium sulphate. A saturated barium sulphate solution was prepared by mixing a barium chloride solution (380 mg/l) with a sodium sulphate solution (3350 mg/l) in a 1:1 ratio, with a maximum amount of barium sulphate to be formed of 210 mg/l. 5 mg/l, 10 mg/l or 15 mg/l of inhibitor was added to the solution. The pH of the solution was adjusted to 5.5 by addition of 1 ml acetate buffer (3.6 g sodium acetate trihydrate and 0.5 g acetic acid per 100 ml) per 100 ml. The solution was then left to stand at 80° C. After 10 hours the solution was filtered by suction through a 0.45 μm Millipore filter and the barium content of the filtrate was determined. The action of the inhibitor was calculated on the basis of the barium value for the experiment without inhibitor (0 per cent inhibition) and the barium value at which no precipitate was formed (100 per cent inhibition).
# [2] = Barium sulphate scale inhibition in presence of Fe2+ ions; conditions: 38 mg/l Fe2+ ions, pH 5.5, 80° C., 10 hours
# Description: as §1
# Example 4 was repeated, with the exception that the barium sulphate solution contained 38 mg/l of Fe^2+ ions.
compound,measurement,setting,value
O=P(O)(O)CN(CCN(CP(=O)(O)O)CP(=O)(O)O)CCN(CP(=O)(O)O)CP(=O)(O)O [Pentaphosphonate (DETPMP)],Inhibition (%) with 5 mg/l,[1]; 5 mg/l inhibitor,18.0%
same,Inhibition (%) with 10 mg/l,[1]; 10 mg/l inhibitor,38.5%
same,Inhibition (%) with 15 mg/l,[1]; 15 mg/l inhibitor,55.5%
same,Inhibition (%) with 5 mg/l,[2]; 5 mg/l inhibitor,12.0%
same,Inhibition (%) with 10 mg/l,[2]; 10 mg/l inhibitor,21.5%
same,Inhibition (%) with 15 mg/l,[2]; 15 mg/l inhibitor,34.5%
